Results on four molecules are retold here after paper PMC4520264 (Organic & biomolecular chemistry, 2015).

Common to all, as to format: binding
The target in assay [1] is HL1.0.1-TO1 (scFv fluorescence-activating protein, FAP). Kind of assay: fluorescence. The settings on record: read-out: TO1-2p-Cy5.
For assay [2] the target is unchanged. Kind of assay: fluorescence ligand depletion titration with […] FAP. The settings on record: read-out: TO1-2p.
Assay [3] deals with R1 (scFv fluorescence-activating protein, FAP). Nature of the assay: fluorescence. The settings on record: read-out: Coumarin-TO.
Assay [4] has the same target. Kind of assay: fluorescence ligand depletion titration with […] R1. The settings on record: read-out: TO.

Regarding TO1-2p-Cy5, the Kd in assay [1] was determined as 12 nM.

Regarding TO1-2p, the Kd in assay [2] turned out to be 0.3 nM. Take coumarin-TO: the Kd in assay [3] worked out at 1.1 nM.

Regarding `CN1/C(=C/c2cc[n+](C)c3ccccc23)Sc2ccccc21` [TO], the Kd in assay [4] amounted to 0.17 nM.
